# According to patent US6750349B2, “Gastrokinetic monocyclic benzamides of 3-or 4-substituted 4-(aminoethyl)-piperidine derivatives” (Janssen Pharmaceutics, N.V., priority 1997, dated 2004):
# System: conscious dogs
# Assay: Gastric emptying of an acaloric liquid test meal delayed by administration of lidamidine, in conscious dogs
# Format: in vivo, beagle dogs
# Conditions: conscious dog; for ΔT/T^b (acceleration of gastric emptying of a liquid meal delayed by lidamidine): dose of 0.0025 mg/kg; for ΔT/T^a (acceleration of gastric emptying of a liquid meal delayed by lidamidine): dose of 0.01 mg/kg
# Text: C.1. Gastric Emptying of an Acaloric Liquid Test Meal Delayed by Administration of Lidamidine, in Conscious Dogs
# Female beagle dogs, weighing 7-14 kg, were trained to stand quietly in Pavlov frames. They were implanted with a gastric cannula under general anesthesia and aseptic precautions. After a median laparatomy, an incision was made through the gastric wall in the longitudinal direction between the greater and the lesser curve, 2 cm above the nerves of Latarjet. The cannula was secured to the gastric wall by means of a double purse string suture and brought out via a stab wound at the left quadrant of the hypochondrium. Dogs were allowed a recovery period of at least two weeks. Experiments were started after a fasting period of 24 hours, during which water was available ad libitum. At the beginning of the experiment, the cannula was opened in order to remove any gastric juice or food remnants.
# The stomach was cleansed with 40 to 50 ml lukewarm water. The test compound was administered I.V. (in a volume≦3 ml via the vena cephalica), S. C. (in a volume≦3 ml) or P. O. (in a volume of 1 ml/kg body weight, applied intragastrically via the cannula with a device that filled the lumen of the cannula; after injection of the test compound, 5 ml NaCl 0.9% was injected in order to correct for the dead space in the injection system). Immediately after administration of the test compound or its solvent, lidamidine 0.63 mg/kg was administered subcutaneously. 30 min later, the cannula was opened to determine the amount of fluid present in the stomach, promptly followed by reintroduction of the fluid. Then the test meal was administered via the cannula. This test meal consisted of 250 ml distilled water containing glucose (5 g/l) as a marker. The cannula remained closed for 30 min, whereafter the gastric contents were drained from the stomach to measure total volume (t=30 min). For later analysis 1 ml of the gastric contents was taken, promptly followed by reintroduction of the rest volume into the stomach. This sequence was repeated 4 times with 30 min intervals (t=60, 90, 120, 150 min).
# In the 1 ml samples of the gastric contents, the glucose concentrations were measured on a Hitachi 717 automatic analyzer by the hexokinase method (Schmidt, 1961).
# Curves were fitted to the measurement points (glucose versus time) using weighed non-linear regression analysis. Gastric emptying was quantified as the time needed to empty 70% of the meal (t70%). The control emptying time was calculated as the mean t70% of the last 5 solvent experiments of the same dog. Acceleration of delayed gastric emptying (Δt) was calculated as the time difference between t70% compound and t70% solvent. To correct for variations in emptying rate between dogs, Δt was expressed as % of t70% solvent (Schuurkes et al, 1992)).
# [1] = compounds, Δt = t70% compound minus t70% solvent, relative to t70% solvent
smiles,measurement,setting,value
"CCCCN1CC[C@@H](CNC(=O)c2cc(Cl)c(N)c(OC)c2OC)[C@H](O)C1.O (racemic) [Compound 9, (±)-trans-4-amino-N-[(1-butyl-3-hydroxy-4-piperidinyl)methyl] -5-chloro-2,3-dimethoxybenzamide monohydrate]",ΔT/T^b (acceleration of gastric emptying of a liquid meal delayed by lidamidine),[1],−0.29
same,ΔT/T^a (acceleration of gastric emptying of a liquid meal delayed by lidamidine),[1],−0.55
same,ΔT/T^b (acceleration of gastric emptying of a liquid meal delayed by lidamidine),intermediates,−0.40
same,ΔT/T^a (acceleration of gastric emptying of a liquid meal delayed by lidamidine),intermediates,−0.31
"COc1c(C(=O)NC[C@@H]2CCN(CCCC(C)=O)C[C@H]2O)cc(Cl)c(N)c1OC.O (racemic) [Compound 14, (±)-trans-4-amino-5-chloro-N-[[3-hydroxy-1-(4-oxopentyl)-4-piperidinyl]methyl]-2,3-dimethoxybenzamide monohydrate]",ΔT/T^b (acceleration of gastric emptying of a liquid meal delayed by lidamidine),[1],−0.52
same,ΔT/T^a (acceleration of gastric emptying of a liquid meal delayed by lidamidine),[1],−0.67
"COCCCN1CC[C@@H](CNC(=O)c2cc(Cl)c(N)c(OC)c2OC)[C@H](O)C1 (racemic) [Compound 11, (±)-trans-4-amino-5-chloro-N-[[3-hydroxy-1-(3-methoxypropyl)-4-piperidinyl]methyl]-2,3-dimethoxybenzamide]",ΔT/T^b (acceleration of gastric emptying of a liquid meal delayed by lidamidine),[1],−0.62
same,ΔT/T^a (acceleration of gastric emptying of a liquid meal delayed by lidamidine),[1],−0.59
